According to ChEMBL document CHEMBL4715821, “Discovery of 4-ethoxy-7H-pyrrolo[2,3-d]pyrimidin-2-amines as potent, selective and orally bioavailable LRRK2 inhibitors” (Bioorg Med Chem Lett, 2018):

Experiments:
[1] = molecular target: Tyrosine-protein kinase FRK (Homo sapiens) (UniProt P42685); experiment: Inhibition of wild-type human partial length FRK (A215 to F503 residues) expressed in bacterial expression system assessed as residual activity at 1 uM by Kinomescan method relative to control
[2] = molecular target: Tyrosine-protein kinase ITK/TSK (Homo sapiens) (UniProt Q08881); experiment: Inhibition of wild-type human partial length ITK (R335 to L620 residues) expressed in bacterial expression system assessed as residual activity at 1 uM by Kinomescan method relative to control
[3] = molecular target: Aurora kinase A (Homo sapiens) (UniProt O14965); experiment: Inhibition of wild-type human partial length AURKA (E122 to K401 residues) expressed in mammalian expression system assessed as residual activity at 1 uM by Kinomescan method relative to control
Chain of Aurora kinase A (Homo sapiens) (O14965 whole entry, the tested form may be a part): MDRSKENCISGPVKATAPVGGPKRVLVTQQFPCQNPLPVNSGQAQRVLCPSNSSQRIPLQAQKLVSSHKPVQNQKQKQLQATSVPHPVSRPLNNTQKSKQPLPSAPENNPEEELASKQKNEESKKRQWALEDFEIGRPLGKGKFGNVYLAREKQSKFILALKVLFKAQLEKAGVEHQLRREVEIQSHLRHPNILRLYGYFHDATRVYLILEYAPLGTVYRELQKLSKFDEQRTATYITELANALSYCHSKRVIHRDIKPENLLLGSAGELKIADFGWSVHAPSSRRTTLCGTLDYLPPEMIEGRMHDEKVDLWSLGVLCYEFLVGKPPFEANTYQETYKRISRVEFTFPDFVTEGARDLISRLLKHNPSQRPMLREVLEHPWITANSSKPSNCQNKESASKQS

[4] = molecular target: Serine/threonine-protein kinase OSR1 (Homo sapiens) (UniProt O95747); experiment: Inhibition of wild-type human full length OSR1 (M1 to S527 residues) expressed in mammalian expression system assessed as residual activity at 1 uM by Kinomescan method relative to control
Chain of Serine/threonine-protein kinase OSR1 (Homo sapiens) (O95747 whole entry, looked up, the tested form may be a part): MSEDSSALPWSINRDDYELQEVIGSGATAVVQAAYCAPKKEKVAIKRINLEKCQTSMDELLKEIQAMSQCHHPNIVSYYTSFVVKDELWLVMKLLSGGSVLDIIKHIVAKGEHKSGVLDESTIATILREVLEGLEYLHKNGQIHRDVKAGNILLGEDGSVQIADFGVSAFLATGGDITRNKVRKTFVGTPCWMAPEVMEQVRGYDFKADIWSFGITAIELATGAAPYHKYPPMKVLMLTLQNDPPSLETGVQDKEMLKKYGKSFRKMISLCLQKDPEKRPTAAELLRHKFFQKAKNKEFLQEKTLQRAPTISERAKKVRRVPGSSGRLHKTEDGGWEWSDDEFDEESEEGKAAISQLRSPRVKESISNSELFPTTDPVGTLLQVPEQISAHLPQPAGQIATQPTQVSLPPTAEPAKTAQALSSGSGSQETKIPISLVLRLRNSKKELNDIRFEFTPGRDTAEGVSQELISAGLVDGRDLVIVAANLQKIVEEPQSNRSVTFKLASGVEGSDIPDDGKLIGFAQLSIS

[5] = molecular target: Dual specificity tyrosine-phosphorylation-regulated kinase 1B (Homo sapiens) (UniProt Q9Y463); experiment: Inhibition of wild-type human full length DYRK1B (M1 to S629 residues) expressed in bacterial expression system assessed as residual activity at 1 uM by Kinomescan method relative to control
[6] = molecular target: Angiopoietin-1 receptor (Homo sapiens) (UniProt Q02763); experiment: Inhibition of wild-type human partial length TIE2 (N804 to T1112 residues) expressed in bacterial expression system assessed as residual activity at 1 uM by Kinomescan method relative to control
[7] = molecular target: Tyrosine-protein kinase Fes/Fps (Homo sapiens) (UniProt P07332); experiment: Inhibition of wild-type human partial length FES (I527 to R822 residues) expressed in bacterial expression system assessed as residual activity at 1 uM by Kinomescan method relative to control
[8] = molecular target: Serine/threonine-protein kinase ULK1 (Homo sapiens) (UniProt O75385); experiment: Inhibition of wild-type human partial length ULK1 (M1 to T309 residues) expressed in mammalian expression system assessed as residual activity at 1 uM by Kinomescan method relative to control
Chain of Serine/threonine-protein kinase ULK1 (Homo sapiens) (O75385 whole entry, the tested form may be a part): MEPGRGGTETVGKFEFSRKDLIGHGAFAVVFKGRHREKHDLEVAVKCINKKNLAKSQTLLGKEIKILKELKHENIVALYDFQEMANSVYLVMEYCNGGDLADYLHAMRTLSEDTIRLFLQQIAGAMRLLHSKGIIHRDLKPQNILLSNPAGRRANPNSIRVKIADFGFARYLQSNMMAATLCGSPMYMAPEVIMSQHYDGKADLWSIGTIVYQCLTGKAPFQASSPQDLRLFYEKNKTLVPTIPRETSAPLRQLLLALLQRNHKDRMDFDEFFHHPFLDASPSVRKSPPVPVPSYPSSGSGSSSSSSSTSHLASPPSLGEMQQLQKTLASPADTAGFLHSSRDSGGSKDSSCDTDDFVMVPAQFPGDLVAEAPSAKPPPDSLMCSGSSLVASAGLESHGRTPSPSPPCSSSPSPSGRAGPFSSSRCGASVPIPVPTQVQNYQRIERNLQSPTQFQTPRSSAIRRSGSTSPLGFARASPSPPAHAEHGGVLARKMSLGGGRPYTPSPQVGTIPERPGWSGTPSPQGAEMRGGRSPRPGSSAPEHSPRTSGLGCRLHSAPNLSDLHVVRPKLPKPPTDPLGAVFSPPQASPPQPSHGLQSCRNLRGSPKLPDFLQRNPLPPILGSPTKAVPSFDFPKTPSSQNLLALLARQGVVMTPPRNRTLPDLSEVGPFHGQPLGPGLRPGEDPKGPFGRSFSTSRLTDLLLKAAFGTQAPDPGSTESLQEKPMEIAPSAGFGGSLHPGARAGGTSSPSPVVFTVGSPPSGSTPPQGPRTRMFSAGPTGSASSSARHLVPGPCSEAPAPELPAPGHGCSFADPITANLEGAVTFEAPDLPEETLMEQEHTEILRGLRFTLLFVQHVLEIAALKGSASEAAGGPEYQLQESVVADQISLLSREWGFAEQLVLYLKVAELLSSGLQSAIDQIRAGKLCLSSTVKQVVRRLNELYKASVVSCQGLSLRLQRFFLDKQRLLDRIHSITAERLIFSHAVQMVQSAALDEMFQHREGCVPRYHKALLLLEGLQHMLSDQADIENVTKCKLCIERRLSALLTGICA

[9] = molecular target: Ephrin type-B receptor 1 (Homo sapiens) (UniProt P54762); experiment: Inhibition of wild-type human partial length EPHB1 (P589 to T911 residues) expressed in bacterial expression system assessed as residual activity at 1 uM by Kinomescan method relative to control
[10] = molecular target: Platelet-derived growth factor receptor alpha (Homo sapiens) (UniProt P16234); experiment: Inhibition of wild-type human partial length PDGFRA (V575 to D1002 residues) expressed in mammalian expression system assessed as residual activity at 1 uM by Kinomescan method relative to control
[11] = molecular target: Ephrin type-A receptor 6 (Homo sapiens) (UniProt Q9UF33); experiment: Inhibition of wild-type human partial length EPHA6 (Y700 to E1046 residues) expressed in bacterial expression system assessed as residual activity at 1 uM by Kinomescan method relative to control
[12] = In vivo inhibition of LRRK2 in C57BL6 mouse assessed as reduction in Ser935 phosphorylation in brain at 45 mg/kg, po after 1 hr by Western blot analysis; type: functional; parameters: scale not given: the % may be the effect or the level left
[13] = molecular target: Mitogen-activated protein kinase kinase kinase 5 (Homo sapiens) (UniProt Q99683); experiment: Inhibition of wild-type human partial length ASK1 (E648 to S964 residues) expressed in bacterial expression system assessed as residual activity at 1 uM by Kinomescan method relative to control
Chain of Mitogen-activated protein kinase kinase kinase 5 (Homo sapiens) (Q99683 whole entry, the tested form may be a part): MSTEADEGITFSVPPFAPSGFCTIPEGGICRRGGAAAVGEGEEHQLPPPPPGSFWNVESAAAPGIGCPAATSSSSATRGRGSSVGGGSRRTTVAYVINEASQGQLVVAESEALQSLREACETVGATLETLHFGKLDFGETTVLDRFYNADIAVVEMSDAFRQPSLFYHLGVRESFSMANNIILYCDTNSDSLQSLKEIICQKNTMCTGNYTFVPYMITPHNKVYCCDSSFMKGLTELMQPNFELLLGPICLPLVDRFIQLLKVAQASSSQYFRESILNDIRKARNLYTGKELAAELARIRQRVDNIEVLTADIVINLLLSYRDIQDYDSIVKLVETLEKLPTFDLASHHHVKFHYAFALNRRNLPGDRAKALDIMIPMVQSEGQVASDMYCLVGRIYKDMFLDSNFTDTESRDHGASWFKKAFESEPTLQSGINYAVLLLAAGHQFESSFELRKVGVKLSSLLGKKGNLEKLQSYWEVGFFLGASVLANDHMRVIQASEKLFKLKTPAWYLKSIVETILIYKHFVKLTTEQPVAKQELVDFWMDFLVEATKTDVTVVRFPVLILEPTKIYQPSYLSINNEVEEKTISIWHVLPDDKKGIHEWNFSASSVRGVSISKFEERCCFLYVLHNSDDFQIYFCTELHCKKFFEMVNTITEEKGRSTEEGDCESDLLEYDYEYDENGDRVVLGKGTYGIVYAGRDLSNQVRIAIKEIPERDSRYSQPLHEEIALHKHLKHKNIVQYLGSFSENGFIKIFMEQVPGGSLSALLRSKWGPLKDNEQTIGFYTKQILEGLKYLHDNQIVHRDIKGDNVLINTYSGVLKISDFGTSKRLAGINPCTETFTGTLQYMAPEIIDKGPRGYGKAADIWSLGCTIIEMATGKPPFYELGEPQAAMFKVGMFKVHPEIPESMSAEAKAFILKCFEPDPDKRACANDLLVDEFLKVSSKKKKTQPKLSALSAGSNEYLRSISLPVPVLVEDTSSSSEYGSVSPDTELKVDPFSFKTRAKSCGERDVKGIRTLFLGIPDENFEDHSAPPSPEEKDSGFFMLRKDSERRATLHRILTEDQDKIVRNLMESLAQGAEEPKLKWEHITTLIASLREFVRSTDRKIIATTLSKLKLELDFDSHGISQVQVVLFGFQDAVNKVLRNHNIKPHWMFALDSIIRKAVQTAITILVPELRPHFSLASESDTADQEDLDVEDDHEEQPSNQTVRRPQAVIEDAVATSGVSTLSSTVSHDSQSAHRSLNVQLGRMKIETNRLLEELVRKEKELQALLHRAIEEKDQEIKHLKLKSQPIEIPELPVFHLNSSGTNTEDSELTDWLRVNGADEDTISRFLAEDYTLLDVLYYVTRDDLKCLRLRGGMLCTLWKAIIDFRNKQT

[14] = Unbound fraction in mouse blood; type: ADME, tissue-based
[15] = molecular target: G protein-coupled receptor kinase 3 (Homo sapiens) (UniProt P35626); experiment: Inhibition of wild-type human full length GRK3 (M1 to L688 residues) expressed in mammalian expression system assessed as residual activity at 1 uM by Kinomescan method relative to control
[16] = molecular target: Voltage-gated inwardly rectifying potassium channel KCNH2 (Homo sapiens, UniProt Q12809); experiment: Inhibition of human ERG
[17] = molecular target: Tyrosine-protein kinase Mer (Homo sapiens) (UniProt Q12866); experiment: Inhibition of wild-type human partial length c-MER (R557 to L884 residues) expressed in bacterial expression system assessed as residual activity at 1 uM by Kinomescan method relative to control
[18] = Unbound fraction in human serum; type: ADME, cell-free
[19] = molecular target: Aurora kinase C (Homo sapiens) (UniProt Q9UQB9); experiment: Inhibition of wild-type human full length AURKC (M1 to S275 residues) expressed in bacterial expression system assessed as residual activity at 1 uM by Kinomescan method relative to control
[20] = molecular target: CDK2/Cyclin A2 (Homo sapiens) (UniProt P24941+P20248); experiment: Inhibition of wild-type human full length CDK2 (M1 to L298 residues)/Cyclin A expressed in bacterial expression system assessed as residual activity at 1 uM by Kinomescan method relative to control
[21] = molecular target: Receptor tyrosine-protein kinase erbB-4 (Homo sapiens) (UniProt Q15303); experiment: Inhibition of wild-type human partial length ERBB4 (L690 to K994 residues) expressed in bacterial expression system assessed as residual activity at 1 uM by Kinomescan method relative to control
[22] = molecular target: Cytochrome P450 3A4 (Homo sapiens, UniProt P08684); experiment: Inhibition of human CYP3A4; type: ADME
Chain of Cytochrome P450 3A4 (P08684 whole entry, the tested form may be a part): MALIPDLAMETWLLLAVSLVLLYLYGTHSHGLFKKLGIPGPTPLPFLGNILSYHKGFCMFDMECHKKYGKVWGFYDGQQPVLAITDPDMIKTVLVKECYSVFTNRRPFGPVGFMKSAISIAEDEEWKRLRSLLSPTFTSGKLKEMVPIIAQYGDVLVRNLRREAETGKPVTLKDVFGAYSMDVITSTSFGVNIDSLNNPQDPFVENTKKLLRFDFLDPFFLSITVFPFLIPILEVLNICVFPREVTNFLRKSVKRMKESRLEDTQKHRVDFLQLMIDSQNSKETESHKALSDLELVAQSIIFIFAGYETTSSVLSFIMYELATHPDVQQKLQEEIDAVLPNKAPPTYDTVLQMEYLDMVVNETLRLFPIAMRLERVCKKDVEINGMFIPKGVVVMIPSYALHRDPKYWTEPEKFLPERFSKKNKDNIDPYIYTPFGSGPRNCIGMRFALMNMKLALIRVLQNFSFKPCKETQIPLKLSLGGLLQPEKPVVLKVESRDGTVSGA

[23] = molecular target: Serine/threonine-protein kinase PLK2 (Homo sapiens) (UniProt Q9NYY3); experiment: Inhibition of wild-type human partial length PLK2 (H58 to F354 residues) expressed in mammalian expression system assessed as residual activity at 1 uM by Kinomescan method relative to control
[24] = molecular target: Beta-adrenergic receptor kinase 1 (Homo sapiens) (UniProt P25098); experiment: Inhibition of wild-type human full length GRK2 (M1 to L689 residues) expressed in mammalian expression system assessed as residual activity at 1 uM by Kinomescan method relative to control
Chain of Beta-adrenergic receptor kinase 1 (Homo sapiens) (P25098 whole entry, the tested form may be a part): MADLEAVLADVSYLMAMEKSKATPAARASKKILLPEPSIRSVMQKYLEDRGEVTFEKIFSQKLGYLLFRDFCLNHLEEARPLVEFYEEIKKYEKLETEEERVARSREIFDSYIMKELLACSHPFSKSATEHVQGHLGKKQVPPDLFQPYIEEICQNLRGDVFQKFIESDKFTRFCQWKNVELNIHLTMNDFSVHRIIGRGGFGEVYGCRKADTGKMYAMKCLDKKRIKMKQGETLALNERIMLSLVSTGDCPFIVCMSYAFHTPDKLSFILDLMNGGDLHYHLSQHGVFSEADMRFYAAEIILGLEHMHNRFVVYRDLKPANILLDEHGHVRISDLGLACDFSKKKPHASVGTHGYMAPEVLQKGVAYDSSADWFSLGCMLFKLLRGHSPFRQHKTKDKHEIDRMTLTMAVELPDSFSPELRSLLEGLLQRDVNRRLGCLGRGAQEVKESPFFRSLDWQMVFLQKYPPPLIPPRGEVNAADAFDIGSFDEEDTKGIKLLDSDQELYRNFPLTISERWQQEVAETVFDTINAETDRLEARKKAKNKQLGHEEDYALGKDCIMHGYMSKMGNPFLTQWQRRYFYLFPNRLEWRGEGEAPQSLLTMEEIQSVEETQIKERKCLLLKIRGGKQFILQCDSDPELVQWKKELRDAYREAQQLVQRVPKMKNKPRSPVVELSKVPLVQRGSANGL

[25] = molecular target: Fibroblast growth factor receptor 2 (Homo sapiens) (UniProt P21802); experiment: Inhibition of wild type human partial length FGFR2 (D457 to E769 residues) expressed in bacterial expression system assessed as residual activity at 1 uM by Kinomescan method relative to control
[26] = molecular target: Serine/threonine-protein kinase 10 (Homo sapiens) (UniProt O94804); experiment: Inhibition of wild-type human partial length LOK (E16 to V314 residues) expressed in bacterial expression system assessed as residual activity at 1 uM by Kinomescan method relative to control
[27] = molecular target: Mitogen-activated protein kinase kinase kinase 7 (Homo sapiens) (UniProt O43318); experiment: Inhibition of wild-type human partial length TAK1 (M1 to Q303 residues) expressed in mammalian expression system assessed as residual activity at 1 uM by Kinomescan method relative to control
[28] = molecular target: Serine/threonine-protein kinase WNK1 (Homo sapiens) (UniProt Q9H4A3); experiment: Inhibition of wild-type human partial length WNK1 (Q194 to A490 residues) expressed in mammalian expression system assessed as residual activity at 1 uM by Kinomescan method relative to control

Chain of Tyrosine-protein kinase FRK (Homo sapiens) (P42685 whole entry, the tested form may be a part): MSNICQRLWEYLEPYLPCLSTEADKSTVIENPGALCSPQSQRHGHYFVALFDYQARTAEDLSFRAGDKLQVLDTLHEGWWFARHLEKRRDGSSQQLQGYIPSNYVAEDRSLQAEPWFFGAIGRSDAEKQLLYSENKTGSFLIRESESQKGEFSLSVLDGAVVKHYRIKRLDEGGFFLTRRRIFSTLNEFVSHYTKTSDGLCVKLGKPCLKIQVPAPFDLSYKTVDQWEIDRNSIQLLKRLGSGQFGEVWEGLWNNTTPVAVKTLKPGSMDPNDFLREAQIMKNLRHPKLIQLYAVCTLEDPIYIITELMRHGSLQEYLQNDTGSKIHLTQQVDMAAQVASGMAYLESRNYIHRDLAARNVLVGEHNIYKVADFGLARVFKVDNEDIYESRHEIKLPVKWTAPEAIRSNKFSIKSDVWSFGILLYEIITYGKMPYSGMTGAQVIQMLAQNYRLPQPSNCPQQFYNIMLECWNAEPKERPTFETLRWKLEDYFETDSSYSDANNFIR

In the case of CCOc1nc(Nc2ccc(C(=O)N3CCOCC3)cc2OC)nc2[nH]ccc12, the Activity [1] is reported as 90.6%, the Activity [2] is reported as 99.8% and the Activity [3] is reported as 94.8%. It also gave an Activity [4] of 101%, an Activity [5] of 66.9% and an Activity [6] of 108%. The Activity [7] was 43.2%, the Activity [8] was 86.1% and the Activity [9] was 100%. The Activity [10] was 101%, the Activity [11] was 100% and the Activity [12] was 50%. For the same compound, the Activity [13] was 92.2%, the fraction unbound [14] was 0.031 and the Activity [15] was 97.2%. The IC50 [16] was > 63.1 µM, the Activity [17] was 97% and the fraction unbound [18] was 0.059. It also gave an Activity [19] of 97.3%, an Activity [20] of 94.9% and an Activity [21] of 101%. The IC50 [22] was 158 µM, the Activity [23] was 89.4% and the Activity [24] was 100%. For the same compound, the Activity [25] was 111%, the Activity [26] was 92.7% and the Activity [27] was 87.5%. For the same compound, the Activity [28] was 78.5%.
